{"source": "patent US7491793B2", "about": "(priority 2003, dated 2009)", "key": {"[1]": {"test_system": "SARS coronavirus strain Urbani", "assay_type": "cell-based, SARS CoV strain Urbani or HK"}, "[2]": {"test_system": "mouse hepatitis virus strain A59", "assay_type": "cell-based, Mouse hepatitis virus (MHV) strain A59"}, "Lassa fever": {"test_system": "Lassa fever", "settings": "only if administered early (up to six days) in the course of illness; cited from earlier work"}, "HIV-1 virion:cell fusion": {"test_system": "HIV-1 virion:cell fusion", "settings": "read-out: concentration giving 50% inhibition of HIV-1 virion:cell fusion; cited from earlier work"}, "HIV-1": {"test_system": "HIV-1", "settings": "100 mg/day, clinical trial, infected individuals; cited from earlier work"}}, "note": "“Also recorded” adds a separate entry of the source."}
{"compound": "GYHLMSFPQAAPHGVVFLHVTY [SEQ ID NO:24]", "values": [{"measurement": "inhibition of plaque formation by SARS CoV", "setting": "[1]", "value": "inhibited plaque formation"}]}
{"compound": "GNHILSLVQNAPYGLYFIHFSW [SEQ IDS NO:22]", "values": [{"measurement": "inhibition of plaque formation by MHV", "setting": "[2]", "value": "can inhibit plaque formation by MHV; also recorded: more efficient"}]}
{"compound": "AACEVAKNLNESLIDLQELGKYEQYIKW [SEQ ID NO:29]", "values": [{"measurement": "inhibition of plaque formation by SARS CoV", "setting": "[1]", "value": "some inhibition"}]}
{"compound": "QDAIKKLNESYINLKEVGTYEMYVKW [SEQ ID NO:27, peptide from the carboxyl terminal helix of MHV S]", "values": [{"measurement": "inhibition of plaque formation by MHV", "setting": "[2]", "value": "some inhibition"}]}
{"compound": "GYFVQDDGEWKFTGSSYYY [SEQ ID NO:23, synthetic peptide from the MHV FIR]", "values": [{"measurement": "inhibition of plaque formation by MHV", "setting": "[2]", "value": "can inhibit plaque formation by MHV"}]}
{"compound": "NC(=O)c1ncn([C@@H]2O[C@H](CO)[C@@H](O)[C@H]2O)n1", "note": "[ribavirin]", "values": [{"measurement": "efficacy in the treatment of Lassa fever", "setting": "Lassa fever", "value": "effective"}]}
{"compound": "GVFVFNGTSWFITQRNFFS [SEQ ID NO:25]", "values": [{"measurement": "inhibition of plaque formation by SARS CoV", "setting": "[1]", "value": "inhibited plaque formation"}]}
{"compound": "enfuvirtide", "values": [{"measurement": "IC50", "setting": "HIV-1 virion:cell fusion", "value": 1.7, "unit": "nM"}, {"measurement": "reduction in plasma HIV-1 load", "setting": "HIV-1", "value": "approximately 100 fold"}]}
{"compound": "MYKTPTLKYFGGFNFSQIL [SEQ ID NO:28]", "values": [{"measurement": "inhibition of plaque formation by SARS CoV", "setting": "[1]", "value": "some inhibition"}]}
{"compound": "MFPPWSAAAGVPFSLSVQY [SEQ ID NO:26]", "values": [{"measurement": "inhibition of plaque formation by MHV", "setting": "[2]", "value": "some inhibition"}]}
